Assay results published in PMC6338644 (The FASEB Journal, 2018).
Structures can show the parent of a compound that is named as a salt. Values belong to the compound of their own block, whether it stands above or below them.

Experiments:
[1] = biological target: SHIP2 in tissues of db/db mice (Mus musculus, UniProt Q6P549); settings: 250 mg/kg per day, 12 d
[2] = test system: SHIP2-overexpressing podocytes; assay: Apoptosis of SHIP2-overexpressing podocytes (cleaved caspase-3 immunoblot, Annexin V flow cytometry); type: cell-based, human; settings: 2 mM, 48 h
SHIP2 expression level = assay: Immunoblot of SHIP2 expression in cultured cells; type: cell-based, rat, human; settings: 2 mM, 20–24 h; myotubes, podocytes, hepatoma cells
[3] = test system: HA-GLUT4-GFP at the plasma membrane of L6-GLUT4 cells; assay: On-Cell Western and HA-GLUT4-GFP endocytosis assay in L6-GLUT4 cells; type: cell-based, rat; settings: 20–24 h
Procedure: (§1) Glucose uptake assay and On-Cell Western were performed essentially as in Tolvanen et al. ([19]). […] Cells were transferred on ice; incubated with anti-HA IgG in serum-free medium for 15 min, followed by additional incubation in fresh cell differentiation medium for 15 min at +37°C; and fixed with 2% paraformaldehyde for 20 min. Cells were incubated with IRDye 800 donkey anti-mouse IgG and nuclear marker DRAQ-5 (Thermo Fisher Scientific). Detection and quantitation were performed with the Odyssey Infrared Imager (Li-Cor Biosciences, Lincoln, NE, USA).
C) Knockdown of SHIP2 reduces metformin-induced glucose uptake. […] L6-GLUT4 myotubes overexpressing SHIP2 were treated and glucose uptake performed as described in C. […] Time point 15 min indicates the amount of HA detected on the cells after 15 min internalization.

L6-GLUT4 myotubes = assay: Glucose uptake assay in L6-GLUT4 myotubes; type: cell-based, rat; settings: metformin 2 mM
Procedure: (§2) Immortalized human podocytes were maintained as previously described ([10]). […] Podocytes were lysed as previously described ([21]).
as §1
(§3) L6-GLUT4 myotubes overexpressing SHIP2 were treated and glucose uptake performed as described in C. […] Time point 15 min indicates the amount of HA detected on the cells after 15 min internalization.

[4] = test system: Akt phosphorylation (pAkt S473); assay: Immunoblot of Akt phosphorylation in cultured cells; type: cell-based, rat, human; settings: 2 mM, 20–24 h
PCK1 and G6Pase mRNA = assay: Quantitative RT-PCR of gluconeogenesis genes in db/db mice; type: in vivo, mouse; settings: 250 mg/kg per day, 12 d
Text: At the end of the experiment, mice were euthanized. […]
The expression levels of the rate-
analyzed by quantitative RT-PCR (n=6).
internal controls for liver and kidney, respectively. The bars show the mean expres sion in arbitrary

[5] = test system: Immortalized human podocytes; assay: Glucose uptake assay in podocytes; type: cell-based
Procedure: as §2, §1, §3

[6] = test system: GLUT1 and GLUT4 protein expression; assay: Immunoblot of GLUT1 and GLUT4 expression in myotubes and podocytes; type: cell-based, rat, human; settings: 2 mM, 20–24 h
db/db mice = settings: cited from earlier work
[7] = biological target: T1, SHIP2 immunoprecipitated from the lysates of hepatoma cells (Rattus norvegicus, UniProt Q9WVR3); assay: Activity of SHIP2 immunoprecipitated from hepatoma cells; type: cell-based; settings: 10 µM, 20–24 h
T1 construct: endogenous in cells; host or cells: Fao hepatoma cells
T1 sequence (Q9WVR3 1-1257): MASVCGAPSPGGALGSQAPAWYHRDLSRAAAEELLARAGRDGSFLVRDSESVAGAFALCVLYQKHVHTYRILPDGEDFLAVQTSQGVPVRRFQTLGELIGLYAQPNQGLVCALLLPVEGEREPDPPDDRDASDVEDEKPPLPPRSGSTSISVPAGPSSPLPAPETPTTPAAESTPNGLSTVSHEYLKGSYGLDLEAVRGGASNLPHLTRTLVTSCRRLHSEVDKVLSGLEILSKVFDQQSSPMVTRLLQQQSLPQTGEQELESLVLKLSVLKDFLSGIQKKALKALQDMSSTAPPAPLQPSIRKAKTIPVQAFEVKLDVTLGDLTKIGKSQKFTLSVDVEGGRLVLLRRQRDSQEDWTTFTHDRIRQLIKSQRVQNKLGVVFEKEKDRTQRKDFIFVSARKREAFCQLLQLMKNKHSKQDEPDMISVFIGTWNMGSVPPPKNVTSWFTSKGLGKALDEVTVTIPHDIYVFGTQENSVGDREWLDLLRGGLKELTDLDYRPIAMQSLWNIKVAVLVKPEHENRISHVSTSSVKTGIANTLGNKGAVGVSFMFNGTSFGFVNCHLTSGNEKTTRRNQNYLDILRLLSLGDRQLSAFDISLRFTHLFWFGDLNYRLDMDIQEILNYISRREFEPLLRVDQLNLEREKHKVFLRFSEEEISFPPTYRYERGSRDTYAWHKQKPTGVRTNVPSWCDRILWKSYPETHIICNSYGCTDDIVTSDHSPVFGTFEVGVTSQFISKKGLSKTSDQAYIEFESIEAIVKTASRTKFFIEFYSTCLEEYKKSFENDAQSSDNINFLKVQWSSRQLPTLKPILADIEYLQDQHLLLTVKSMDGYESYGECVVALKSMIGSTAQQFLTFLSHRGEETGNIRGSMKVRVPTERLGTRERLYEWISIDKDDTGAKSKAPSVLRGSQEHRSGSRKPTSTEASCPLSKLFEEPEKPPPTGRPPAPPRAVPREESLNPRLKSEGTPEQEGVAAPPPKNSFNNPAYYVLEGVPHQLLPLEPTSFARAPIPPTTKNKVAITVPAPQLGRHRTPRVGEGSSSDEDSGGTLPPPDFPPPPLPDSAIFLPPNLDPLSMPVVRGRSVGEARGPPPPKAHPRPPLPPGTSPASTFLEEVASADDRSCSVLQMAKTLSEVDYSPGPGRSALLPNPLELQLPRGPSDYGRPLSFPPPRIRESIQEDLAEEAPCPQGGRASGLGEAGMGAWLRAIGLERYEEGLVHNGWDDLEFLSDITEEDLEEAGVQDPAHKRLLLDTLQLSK

[8] = 20–24 h, insulin 100 nM, 15 min

SHIP2 in tissues of db/db mice, sequence (Q6P549 whole entry): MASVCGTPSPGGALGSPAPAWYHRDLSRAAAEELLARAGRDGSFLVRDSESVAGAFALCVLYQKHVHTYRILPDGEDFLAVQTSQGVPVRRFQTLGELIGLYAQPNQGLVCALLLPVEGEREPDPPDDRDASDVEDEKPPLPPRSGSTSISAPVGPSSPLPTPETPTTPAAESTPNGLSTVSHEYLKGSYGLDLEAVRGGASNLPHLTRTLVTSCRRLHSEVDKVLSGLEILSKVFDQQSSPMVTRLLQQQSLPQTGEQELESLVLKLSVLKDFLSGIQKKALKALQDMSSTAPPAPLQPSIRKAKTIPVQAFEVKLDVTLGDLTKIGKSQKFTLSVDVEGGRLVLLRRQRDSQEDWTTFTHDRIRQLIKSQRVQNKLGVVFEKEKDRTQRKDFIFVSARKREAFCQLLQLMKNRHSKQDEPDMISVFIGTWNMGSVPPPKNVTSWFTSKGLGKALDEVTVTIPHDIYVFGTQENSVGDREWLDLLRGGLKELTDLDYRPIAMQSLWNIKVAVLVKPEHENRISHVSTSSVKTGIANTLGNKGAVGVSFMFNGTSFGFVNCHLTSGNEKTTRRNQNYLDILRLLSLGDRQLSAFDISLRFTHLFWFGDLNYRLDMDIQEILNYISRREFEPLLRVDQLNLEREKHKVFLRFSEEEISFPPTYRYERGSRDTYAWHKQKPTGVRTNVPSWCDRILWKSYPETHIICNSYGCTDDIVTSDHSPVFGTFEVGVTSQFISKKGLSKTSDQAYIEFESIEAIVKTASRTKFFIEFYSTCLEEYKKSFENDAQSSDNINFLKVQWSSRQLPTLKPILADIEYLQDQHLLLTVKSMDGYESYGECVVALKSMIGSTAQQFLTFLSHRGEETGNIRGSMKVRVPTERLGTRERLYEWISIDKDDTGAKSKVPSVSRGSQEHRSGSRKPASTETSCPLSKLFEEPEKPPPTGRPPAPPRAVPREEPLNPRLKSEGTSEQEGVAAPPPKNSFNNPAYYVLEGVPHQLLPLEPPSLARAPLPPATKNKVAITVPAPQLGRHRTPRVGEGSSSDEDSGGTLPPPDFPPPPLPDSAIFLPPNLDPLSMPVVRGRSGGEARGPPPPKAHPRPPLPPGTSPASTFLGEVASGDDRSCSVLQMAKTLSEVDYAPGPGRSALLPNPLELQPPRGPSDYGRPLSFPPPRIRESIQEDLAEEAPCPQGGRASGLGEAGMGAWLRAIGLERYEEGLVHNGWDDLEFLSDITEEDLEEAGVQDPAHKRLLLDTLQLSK

- SHIP2 activity in the liver [1]: not reduced
- decrease in enzymatic activity of SHIP2 in kidney [1]: 40%
SMILES: CN(C)C(=N)N=C(N)N [Metformin, 1,1-Dimethylbiguanide hydrochloride]
- cleaved caspase-3 level in SHIP2-overexpressing podocytes [2]: back to the level in the control
- level of apoptosis (Annexin V, flow cytometry) in SHIP2-overexpressing podocytes [2]: back to the level of the control
- effect on SHIP2 expression level in cultured cells (SHIP2 expression level): no effect
- increase in amount of HA-GLUT4-GFP on the PM ([3]; L6-GLUT4 cells, basal conditions, 2 mM): 40%
- decrease in amount of HA-GLUT4-GFP on the PM after 15 min uptake (endocytosis) ([3]; metformin 2 mM): 10%
- increase in insulin-stimulated glucose uptake, SHIP2 knockdown (L6-GLUT4 myotubes; SHIP2 shRNA, 20–24 h, insulin 100 nM, 15 min): 109%
- increase in glucose uptake in L6-GLUT4 myotubes (L6-GLUT4 myotubes; control shRNA, 20–24 h, insulin 100 nM, 15 min): 148%
- increase in glucose uptake in empty vector-transfected myotubes (L6-GLUT4 myotubes; [8]): 155%
- increase in insulin-stimulated glucose uptake, SHIP2 overexpression (L6-GLUT4 myotubes; [8]): 76%
- increase in glucose uptake in L6-GLUT4 cells (L6-GLUT4 myotubes; 20–24 h, serum-starved): 218%
- glucose uptake in L6-GLUT4 cells, metformin together with insulin (L6-GLUT4 myotubes; 20–24 h plus insulin 100 nM, 15 min): did not have an additive effect
- insulin-induced Akt phosphorylation in SHIP2-overexpressing podocytes ([4]; insulin 200 nM, 15 min): restored its activity
- Akt phosphorylation (activity) in basal state ([4]; myotubes and podocytes): did not increase
- G6Pase mRNA level in kidney (PCK1 and G6Pase mRNA): increased
- G6Pase mRNA level in liver (PCK1 and G6Pase mRNA): decreased
- PCK1 mRNA level in kidney (PCK1 and G6Pase mRNA): increased
- PCK1 mRNA level in liver (PCK1 and G6Pase mRNA): decreased
- increase in glucose uptake in podocytes [5]: 52%
- increase in glucose uptake in podocytes, metformin together with insulin [5]: 80%
- effect on GLUT1 and GLUT4 protein expression levels [6]: no effect

SMILES: C[C@H](NC(=O)c1sccc1OCc1ccc(Cl)cc1)c1ccccc1 [AS1949490]
- PCK1 expression in db/db mice (db/db mice): reduce
- blood glucose in db/db mice (db/db mice; short-term treatment): reduced
- insulin sensitivity in db/db mice (db/db mice; short-term treatment): improved
- inhibition of SHIP2 in hepatoma cells [7]: did not inhibit
